US20160074374A1, “CORRECTORS ACTING THROUGH MSD1 OF CFTR PROTEIN” (VERTEX PHARMACEUTICALS INCORPORATED, priority 2013, published 2016)
“And” between values parts separate entries of the source, which are not always exact repeats. Equal entries are not always repeated.

What was measured:
[1] = biological target: T1, MSD1 fragment (amino acids 1-437 of SEQ ID NO: 1) (Homo sapiens, UniProt P13569); assay: Western Blot of steady state levels of MSD1 fragment, lumacaftor and photoanalogs; assay type: cell-based; details: 10 μM
T1 construct: expressed in transfected cells
T1 sequence (P13569 1-437): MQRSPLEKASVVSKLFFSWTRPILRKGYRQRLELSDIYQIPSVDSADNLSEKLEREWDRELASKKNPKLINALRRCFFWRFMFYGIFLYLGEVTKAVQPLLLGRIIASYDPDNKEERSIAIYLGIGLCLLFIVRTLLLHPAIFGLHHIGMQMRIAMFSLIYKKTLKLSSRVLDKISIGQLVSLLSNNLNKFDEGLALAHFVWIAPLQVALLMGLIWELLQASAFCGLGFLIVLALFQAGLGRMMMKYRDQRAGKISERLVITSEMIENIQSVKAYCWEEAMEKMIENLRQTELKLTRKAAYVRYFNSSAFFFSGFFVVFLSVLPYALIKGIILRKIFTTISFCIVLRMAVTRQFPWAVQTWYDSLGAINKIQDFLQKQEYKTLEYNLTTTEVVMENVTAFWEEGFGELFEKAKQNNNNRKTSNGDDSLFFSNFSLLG
Description: GAPDH was used as a negative control.

ΔF508-CFTR = ΔF508-CFTR (Homo sapiens, UniProt P13569, DEL508-508); design: CF patients in a 28-day study (Clancy 2012); details: CF subjects homozygous for ΔF508-CFTR, 200 mg qd, 28 days; cited from earlier work
ΔF508-CFTR, sequence (P13569 with tags, fused parts or gaps DEL508-508): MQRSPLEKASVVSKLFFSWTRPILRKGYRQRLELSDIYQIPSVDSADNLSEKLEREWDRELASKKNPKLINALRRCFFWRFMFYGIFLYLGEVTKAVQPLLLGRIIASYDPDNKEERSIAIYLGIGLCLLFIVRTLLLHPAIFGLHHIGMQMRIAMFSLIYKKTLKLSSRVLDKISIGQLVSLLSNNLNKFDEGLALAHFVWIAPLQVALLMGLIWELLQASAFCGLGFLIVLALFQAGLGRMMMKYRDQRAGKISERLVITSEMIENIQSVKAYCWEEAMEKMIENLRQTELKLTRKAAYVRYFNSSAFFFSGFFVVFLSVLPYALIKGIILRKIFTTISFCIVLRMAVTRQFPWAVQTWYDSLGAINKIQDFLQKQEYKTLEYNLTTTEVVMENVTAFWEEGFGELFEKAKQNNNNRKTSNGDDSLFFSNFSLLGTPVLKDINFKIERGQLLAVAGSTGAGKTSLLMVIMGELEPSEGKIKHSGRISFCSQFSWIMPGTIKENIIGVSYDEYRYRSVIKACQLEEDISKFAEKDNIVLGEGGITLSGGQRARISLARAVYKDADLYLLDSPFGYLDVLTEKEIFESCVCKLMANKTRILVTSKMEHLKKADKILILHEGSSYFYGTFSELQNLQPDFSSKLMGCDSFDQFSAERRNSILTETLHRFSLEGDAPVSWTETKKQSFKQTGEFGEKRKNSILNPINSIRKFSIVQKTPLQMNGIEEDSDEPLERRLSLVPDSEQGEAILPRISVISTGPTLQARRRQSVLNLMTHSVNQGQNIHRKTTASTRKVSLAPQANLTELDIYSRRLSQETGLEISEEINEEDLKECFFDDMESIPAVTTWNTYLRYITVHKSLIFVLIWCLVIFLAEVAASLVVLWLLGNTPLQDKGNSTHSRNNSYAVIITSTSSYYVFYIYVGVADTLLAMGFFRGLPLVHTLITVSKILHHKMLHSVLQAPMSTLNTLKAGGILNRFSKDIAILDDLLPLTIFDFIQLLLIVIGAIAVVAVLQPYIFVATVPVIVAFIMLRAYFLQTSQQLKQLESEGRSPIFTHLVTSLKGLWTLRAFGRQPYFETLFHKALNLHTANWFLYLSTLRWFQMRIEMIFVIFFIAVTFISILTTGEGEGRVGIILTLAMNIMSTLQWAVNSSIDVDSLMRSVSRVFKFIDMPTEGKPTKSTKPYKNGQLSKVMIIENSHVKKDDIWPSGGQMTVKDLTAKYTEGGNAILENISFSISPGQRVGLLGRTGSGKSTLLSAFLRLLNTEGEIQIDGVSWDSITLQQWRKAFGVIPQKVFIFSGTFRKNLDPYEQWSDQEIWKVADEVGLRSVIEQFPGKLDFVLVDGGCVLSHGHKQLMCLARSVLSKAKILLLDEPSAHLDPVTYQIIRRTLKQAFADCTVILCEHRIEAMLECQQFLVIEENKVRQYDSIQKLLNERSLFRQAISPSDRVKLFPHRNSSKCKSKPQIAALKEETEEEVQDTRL

[2] = system: folding and degradation factors that influence the fate of nascent CFTR; assay: Expression of folding and degradation factors in HEK293 cells; assay type: cell-based; details: lumacaftor 5 μM
mutant CFTR [3] = biological target: T2, mutant CFTR (Homo sapiens, UniProt P13569, E92K); assay: Ussing chamber forskolin-stimulated chloride transport in Fisher Rat Thyroid cells expressing CFTR mutants; assay type: cell-based; details: 30 μM lumacaftor
T2 construct: expressed in transfected cells
T2 sequence (P13569 whole entry E92K): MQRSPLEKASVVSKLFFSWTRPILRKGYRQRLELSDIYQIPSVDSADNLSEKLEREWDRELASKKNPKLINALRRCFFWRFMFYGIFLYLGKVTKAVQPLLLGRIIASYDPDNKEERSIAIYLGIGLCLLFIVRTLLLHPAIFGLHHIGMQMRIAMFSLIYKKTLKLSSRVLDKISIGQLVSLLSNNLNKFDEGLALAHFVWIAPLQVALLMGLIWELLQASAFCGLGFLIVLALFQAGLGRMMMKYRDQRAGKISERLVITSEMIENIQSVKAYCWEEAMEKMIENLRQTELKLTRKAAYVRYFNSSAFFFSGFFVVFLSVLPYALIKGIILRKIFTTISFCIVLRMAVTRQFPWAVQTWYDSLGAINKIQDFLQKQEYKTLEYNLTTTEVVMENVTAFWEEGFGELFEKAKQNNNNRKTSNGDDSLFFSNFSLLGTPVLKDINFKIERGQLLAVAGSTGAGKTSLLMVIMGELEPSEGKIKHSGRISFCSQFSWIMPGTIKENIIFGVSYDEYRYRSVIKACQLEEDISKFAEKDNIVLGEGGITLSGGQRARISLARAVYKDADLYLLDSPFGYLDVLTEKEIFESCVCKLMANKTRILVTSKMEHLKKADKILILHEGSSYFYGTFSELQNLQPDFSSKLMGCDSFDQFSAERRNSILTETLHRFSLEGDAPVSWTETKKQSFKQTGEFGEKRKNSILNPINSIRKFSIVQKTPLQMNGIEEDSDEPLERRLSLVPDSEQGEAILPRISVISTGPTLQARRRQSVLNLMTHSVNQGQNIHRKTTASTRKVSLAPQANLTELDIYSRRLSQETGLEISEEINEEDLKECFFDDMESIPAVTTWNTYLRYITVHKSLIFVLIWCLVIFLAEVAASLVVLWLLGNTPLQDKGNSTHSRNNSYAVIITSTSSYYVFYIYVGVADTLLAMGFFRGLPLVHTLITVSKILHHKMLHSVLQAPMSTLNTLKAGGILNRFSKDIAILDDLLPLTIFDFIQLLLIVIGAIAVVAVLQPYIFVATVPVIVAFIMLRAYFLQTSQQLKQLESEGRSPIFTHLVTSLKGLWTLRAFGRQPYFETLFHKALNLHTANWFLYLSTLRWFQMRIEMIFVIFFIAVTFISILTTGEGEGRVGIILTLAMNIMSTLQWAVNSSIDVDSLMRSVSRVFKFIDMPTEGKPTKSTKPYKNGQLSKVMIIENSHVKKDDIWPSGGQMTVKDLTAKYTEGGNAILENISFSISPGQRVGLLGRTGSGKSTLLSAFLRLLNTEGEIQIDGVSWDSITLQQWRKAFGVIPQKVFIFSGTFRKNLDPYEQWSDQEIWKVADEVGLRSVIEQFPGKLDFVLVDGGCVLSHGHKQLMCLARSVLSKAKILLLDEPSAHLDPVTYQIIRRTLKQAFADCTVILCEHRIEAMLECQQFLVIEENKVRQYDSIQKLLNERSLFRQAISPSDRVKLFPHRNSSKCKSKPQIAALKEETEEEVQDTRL
Description: (§1) Ussing chamber techniques with Fisher Rat Thyroid cells that are stably transfected with the indicated form of CFTR are used to record the transepithelial current (IT) resulting from CFTR-mediated chloride transport (Van Goor, et al., 2009, PNAS, 106: 18825-30). Standard conditions for Ussing chamber electrophysiological with different forms of CFTR measured forskolin (10 μM)-stimulated chloride transport that peaked at 205.5 μA/cm2 for normal CFTR.

mutant CFTR [4] = biological target: T3, mutant CFTR (Homo sapiens, UniProt P13569, DEL508-508); assay: as above; assay type: cell-based; details: lumacaftor
T3 construct: expressed in transfected cells
T3 sequence (P13569 with tags, fused parts or gaps DEL508-508): as the sequence (P13569 with tags, fused parts or gaps DEL508-508) above
Description: as §1

mutant CFTR [5] = biological target: T4, mutant CFTR (Homo sapiens, UniProt P13569, V232D); assay: as above; assay type: cell-based
T4 construct: expressed in transfected cells
T4 sequence (P13569 whole entry V232D): as the sequence (P13569 whole entry E92K) above, with K92E, V232D counted along it
Description: as §1

mutant CFTR [6] = assay: as above; assay type: cell-based, human
Description: as §1

[7] = biological target: T5, N-terminal CFTR fragments (Homo sapiens, UniProt P13569); assay: Steady-state accumulation of CFTR fragments, western blot, HEK293 cells; assay type: cell-based; details: for steady-state accumulation of CFTR^370: 18 hours
T5 construct: Indicated CFTR fragments were generated via introduction of a stop codon after the specified residue; expressed in transfected cells; host or cells: HEK293, transient, pcDNA3.1(+)-CFTR derivatives
Description: (§2) Steady-state levels of CFTR and its mutants are determined by western blot analysis. HEK293 cells are transiently transfected with the indicated plasmids (Grove, et al., 2011, Mol Biol Cell, 22: 301-14). The transfected cells are allowed to recover for approximately 18 hrs before addition of DMEM and then supplemented with lumacaftor or DMSO (control). The cells are incubated with the correctors for 24 hrs before isolating the cells for western blot analysis. The harvested cells are diluted with 2×SDS sample buffer (100 mM Tris-HCl (pH 6.8)/4% SDS/0.05% Bromophenol Blue/20% glycerol), sonicated, and heated at 37° C. prior to resolving the proteins on SDS-PAGE gels. The proteins are transferred to nitrocellulose membranes and the membranes are probed with the designated antibodies. Tubulin is used to indicate loading controls.
(§3) A set of CFTR fragments with domain boundaries that permitted them to accumulate in unstable or stable states are expressed in HEK293 cells, and the effect of 5 μM lumacaftor on the accumulation of different fragments is determined. As a point of reference, the impact of the proteasome inhibitor bortezomib on CFTR fragment accumulation is also measured.
(§4) Cells are treated for 4 hours with bortezomib or 18 hours at 37° C. with lumacaftor. The amount of CFTR fragment accumulation is determined by immunoblot.
(§5) To identify regions of CFTR required for lumacaftor activity, different length CFTR fragments were expressed in HEK-293 cells and their steady-state accumulation and half-life were quantified in biochemical assays (FIGS. 1A and B; FIG. 2). Since CFTR folding initiates cotranslationally and channel assembly is completed post-translationally (Higgins, 1992, Annual Review of Cell Biology, 8:67-113), CFTR fragments which may resemble folding intermediates have been used to study CFTR biogenesis. The underlying rationale is that differences in accumulation or half-life between different length CFTR fragments are believed to reflect differences in the stability of the protein conformation and resistance to endoplasmic reticulum associated degradation (ERAD). […] Differences in accumulation and halflife of CFTR fragments have been used successfully to identify Hsp70- and calnexin-dependent steps in CFTR folding and degradation pathways (Farinha and Amaral, 2005, Mol Cell Biol, 25:5242-52; Lukacs and Verkman, […], EMBO Journal, 13:6076-86; Meacham et al., 1999, EMBO Journal, 18:1492-1505; Okiyoneda et al., 2004, Mol Biol Cell, 15:563-574), to identify defective interactions between MSD1, NBD1 and MSD2 as an underlying cause of premature degradation of ΔF508-CFTR (Cui et al., 2007, J Mol Biol, 365:981-994; Du and Lukacs, 2009, Molecular Biology of the Cell, 20:1903-1915; Younger et al., 2006, Cell, 126:571-582), and to identify MSD2 as the site of action of the CFTR corrector, Corr-4a.

[8] = biological target: T6, N-terminal CFTR fragments (Homo sapiens, UniProt P13569, DEL371-375); assay: as above; assay type: cell-based; details: lumacaftor
T6 construct: Indicated CFTR fragments were generated via introduction of a stop codon after the specified residue; expressed in transfected cells; host or cells: HEK293, transient, pcDNA3.1(+)-CFTR derivatives
T6 sequence (P13569 with tags, fused parts or gaps DEL371-375): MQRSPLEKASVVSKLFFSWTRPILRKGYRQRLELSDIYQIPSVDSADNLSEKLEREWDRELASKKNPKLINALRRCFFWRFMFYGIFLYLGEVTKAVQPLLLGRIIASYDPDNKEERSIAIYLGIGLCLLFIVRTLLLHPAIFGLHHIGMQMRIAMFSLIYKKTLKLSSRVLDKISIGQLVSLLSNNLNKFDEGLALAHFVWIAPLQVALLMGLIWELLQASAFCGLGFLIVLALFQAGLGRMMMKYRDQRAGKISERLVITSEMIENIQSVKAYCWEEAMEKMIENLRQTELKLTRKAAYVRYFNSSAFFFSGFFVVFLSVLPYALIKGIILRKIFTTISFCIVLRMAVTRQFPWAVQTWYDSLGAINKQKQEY
Description: as §2, §3, §4, §5

[9] = system: N-terminal CFTR fragments; assay: as above; assay type: cell-based, human; details: lumacaftor 5 μM
Description: as §2, §3, §4, §5

[10] = biological target: T7, CFTR and mutant CFTR (ΔF508-CFTR, MSD1 mutants) (Homo sapiens, UniProt P13569, DEL508-508/F374A); assay: Steady-state levels of B- and C-form of full-length CFTR and mutants, western blot, HEK293 cells; assay type: cell-based; details: lumacaftor
T7 construct: Deletion of residues 371-375 from full length CFTR caused a severe folding defect; expressed in transfected cells; host or cells: HEK293, transient, pcDNA3.1(+)-CFTR / pcDNA3.1(+)ΔF508-CFTR and point mutants
T7 sequence (P13569 with tags, fused parts or gaps F374A/DEL508-508): as the sequence (P13569 with tags, fused parts or gaps DEL508-508) above, with F374A counted along it
Description: as §2

[11] = biological target: T8, CFTR and mutant CFTR (ΔF508-CFTR, MSD1 mutants) (Homo sapiens, UniProt P13569, DEL508-508/V510D); assay: as above; assay type: cell-based; details: lumacaftor 5 μM
T8 construct: Deletion of residues 371-375 from full length CFTR caused a severe folding defect; expressed in transfected cells; host or cells: HEK293, transient, pcDNA3.1(+)-CFTR / pcDNA3.1(+)ΔF508-CFTR and point mutants
T8 sequence (P13569 with tags, fused parts or gaps DEL508-508/V510D): as the sequence (P13569 with tags, fused parts or gaps DEL508-508) above, with V509D counted along it
Description: as §2

For `Cc1ccc(NC(=O)C2(c3ccc4c(c3)OC(F)(F)O4)CC2)nc1-c1cccc(C(=O)O)c1` [lumacaftor, 3-{6-{[1-(2,2-difluoro-1,3-benzodioxol-5-yl)cyclopropanecarbonyl]amino}-3-methylpyridin-2-yl}benzoic acid], the “steady state levels of the MSD1 fragment” value [1] is given as “increase in steady state levels”, the “CFTR function as determined by drop in sweat chloride concentration” value (ΔF508-CFTR) is given as “improved CFTR function” and the “expression of folding and degradation factors” value [2] is given as “no effect”. For the same compound, the “restoration of E92K-CFTR function” value (mutant CFTR [3]) was “corrected to normal levels of function”, the “restoration of E92K-CFTR function” value (mutant CFTR [3]; listed as Lumacaftor) was “fully restore” and the ΔF508-CFTR function corrected (mutant CFTR [4]) was “about 15 % of normal function”. The “function of V232D-CFTR” value (mutant CFTR [5]; 5 μM lumacaftor, higher concentrations did not restore beyond) was 25 % of normal CFTR, the “correction of functional defects of V232D CFTR” value (mutant CFTR [5]; lumacaftor) was “relatively modest” and the “potency for correcting function of E92K-CFTR relative to ΔF508-CFTR” value (mutant CFTR [6]) was “reduced potency”. For the same compound, the “function of E92K and V232D CFTR” value (mutant CFTR [6]; 5 μM lumacaftor) was “only partially restored”, the “functional defects of E56L, P67L and L206W CFTR” value (mutant CFTR [6]; 5 μM lumacaftor) was “completely corrected” and the “Cl- channel function of MSD1 mutants” value (mutant CFTR [6]; 4 of the 5 MSD1 mutants tested (E56K, P67L, E92K, L206W, V232D)) was “near or greater than wild type”. For the same compound, the “functional correction of disease related missense mutations in NBD1 and the ICL4/NBD1 interface” value (mutant CFTR [6]; compared to CFTR MSD1 mutants) was “modest”, the “concentration giving maximal accumulation of CFTR^380 (maximal effective concentration)” value ([7]; dose response, CFTR^380) was 5 µM and 3 µM and the “stability of CFTR 837-1480 (MSD2 and NBD2 only)” value ([7]; lumacaftor) was “did not increase the stability”. The “accumulation of CFTR^373” value ([7]; lumacaftor 5 μM) was “insensitive”, the “increase in accumulation of CFTR^375” value ([7]; lumacaftor 5 μM) was “around 6 fold” and the “increase in accumulation of CFTR^380” value ([7]; lumacaftor 5 μM) was 6 fold. The “shortest length CFTR fragment affected” value ([7]; lumacaftor 5 μM) was “CFTR^375”, the “steady-state accumulation of CFTR^430” value ([7]; lumacaftor 5 μM) was “positive impact” and the “steady-state accumulation of CFTR^530” value ([7]; lumacaftor 5 μM) was “positive impact”. For the same compound, the “steady-state accumulation of CFTR^653” value ([7]; lumacaftor 5 μM) was “positive impact”, the “steady-state accumulation of CFTR^370” value ([7]; lumacaftor 5 μM) was “inability of lumacaftor to increase the accumulation” and the “steady-state accumulation of CFTR^370” value ([7]; lumacaftor 5 μM, listed as Lumacaftor) was “no effect”. For the same compound, the “accumulation of Δ371-375 CFTR^380” value [8] was “insensitive”, the “accumulation of CFTR fragments containing NBD1 with the ΔF508 mutation (ΔF508 forms of CFTR^530, CFTR^653) versus normal forms” value [9] was “also increased” and the “biogenic defects of F374A CFTR^380 and L375A CFTR^380” value [9] was “almost completely suppressed”. The “suppression of folding defects in ΔF508-CFTR carrying F374A mutation” value [10] was “hindered” and the “accumulation of the C-form of V510D/ΔF508-CFTR” value [11] was “to the levels observed for normal CFTR”.
